experiment: in vitro; conditions: human, hela cells, % viability

Row | Compound | viability at 28.5 h, 10 µM
1 | CC(C)c1ccc(S(=O)(=O)N(c2ccccc2)C2CCNCC2)cc1 [CBK165088T] | 108%
2 | CC1CCc2nc3ncn(CC(=O)NC4CC4)c(=O)c3cc2C1 (centres unmarked) [CBK294401] | 88.3%
3 | O=C(NC[C@H]1O[C@@H](CC(=O)N2CCc3ccccc32)[C@H](O)[C@@H]1O)C1CC1 [CBK288915] | 105%
4 | Cc1cc(C)n(CC(C)CNC(=O)Cc2csc(C(C)(C)C)n2)n1 (centres unmarked) [CBK305340] | 96.1%
5 | Cc1nc(SCC(N)=O)nc(C)c1CCC(=O)NCc1ccc(F)cc1 [CBK295201] | 88.5%
6 | COc1cc(C2c3c(oc4ccc(Cl)cc4c3=O)C(=O)N2CC2CCCO2)ccc1OCc1ccccc1 (centres unmarked) [CBK267581] | 89.5%
7 | C=CCNC(=O)c1cnc(-c2ccc(Cl)cc2)c(-c2ccco2)c1 [CBK036738] | 90.6%
8 | CCCCc1cc(=O)oc2cc(OCC(=O)O)ccc12 [CBK264205] | 99.4%
9 | CCOC(=O)C(NCCc1ccc(OC)c(OC)c1)(NC(=O)c1ccco1)C(F)(F)F (centres unmarked) [CBK013715] | 123%
10 | CCCn1ccnc1CNc1nc2c(s1)c(C)nn2C [CBK307254] | 84.3%
11 | Cc1cc(Br)cc(C)c1OCCNCCN(C)C [CBK267808G] | 106%
12 | CC1CN(c2cc(CO)c(F)cn2)CC2(CCOC2)O1 (centres unmarked) [CBK304772] | 93.8%
13 | CCC1CNCCN1c1nccnc1OCCOc1cccnc1 (centres unmarked) [CBK001559F] | 121%
14 | O=S(=O)(c1cccc(F)c1)N1CCC(Cc2ccccc2)CC1 [CBK044828] | 102%
15 | COc1cncc(-c2cc(Nc3ccc(OC)c(OC)c3)ncn2)c1 [CBK090824] | 92%
16 | COc1ccccc1CN(CCCN)C(=O)NC(C)c1ccccc1 (centres unmarked) [CBK034667C] | 87.3%
17 | CCN(CC)c1c(C)nc2ccc(C(=O)Nc3cc(-c4ccccc4)ccc3OC)cn12 [CBK145980] | 121%
18 | CN(C)c1ccc(C(=O)N2CCN3C(=O)[C@H](Cc4ccc(F)cc4)NC(=O)[C@H]3C2)cc1 [CBK289601] | 109%
19 | CC(C)[C@H]1CN(Cc2cc(C#N)n(C)c2)C[C@@H]1NC(=O)C1CCC1 [CBK306832] | 91.6%
20 | OC(CCNC1CCCCC1)(c1ccccc1)c1ccccc1 [CBK013339] | 101%
21 | CN(C)S(=O)(=O)NNC(=O)c1c[nH]c2ccccc12 [CBK267698] | 102%

Row | Compound | viability at 28.5 h, 10 µM
22 | COc1ccc(-c2nnc([C@H]3CCN(Cc4ccccn4)C3)o2)cc1 [CBK289401] | 93.4%
23 | Cc1c(C(=O)O)sc(S(=O)(=O)N2CCN(C(=O)CC(C)c3ccccc3)CC2)c1C(=O)O (centres unmarked) [CBK297143] | 97.4%
24 | CCOc1cc(OCC)cc(C(=O)N2CCC3(CC2)NC(=O)c2ccc(C)cc2O3)c1 [CBK166215] | 117%
25 | CC(NC(=O)CCc1cnn(C)c1)c1nc(-c2ccncc2)cs1 (centres unmarked) [CBK305496] | 91.4%
26 | C(=C\c1cccc(N2CCN(CCN3CCCC3)CC2)n1)/c1ccccc1 [CBK036853] | 97.8%
27 | CC(C)NC(=O)CN1CCC(Oc2nccnc2OCc2ccc(Cl)c(Cl)c2)CC1 [CBK153791] | 92.2%
28 | CCCNC(=O)c1nn2c(c1Cl)NC(c1cccs1)CC2C(F)(F)F (centres unmarked) [CBK307177] | 90.3%
29 | N#CCCn1cc(C(=O)N2CCCCC2)c(-c2cccs2)n1 [CBK306194] | 86.5%
30 | COc1cc(C(=O)N2CCC3(CC2)NC(=O)c2cc(C)ccc2O3)ccc1C [CBK166276] | 108%
31 | O=C(C1CCC1)N1CC(n2nc(-c3ccccc3)ccc2=O)C1 [CBK284624] | 79.2%
32 | O=C(CCCOc1ccc(Cl)cc1Cl)Nc1ccc(O)cc1C(=O)O [CBK131688] | 104%
33 | Cc1cc(C)nc(NC(=O)NS(=O)(=O)Nc2ccccc2Cl)n1 [CBK260912] | 102%
34 | O=C(Cn1c(=O)n(Cc2cccs2)c2ncccc21)N1CCCC1 [CBK283894] | 83.6%
35 | O=C(O)c1ccccc1-c1ccccc1C(=O)NCCCO [CBK267197] | 92.3%
36 | COc1ccc(/C=C/C(=O)NCc2ccc(S(N)(=O)=O)cc2)cc1OC [CBK265483] | 91%
37 | CCn1ncc(CN2CCCCCC2c2cc(C)on2)c1C (centres unmarked) [CBK282141] | 91.7%
38 | CCCC(=O)c1ccc(S(=O)(=O)N2CCCN(Cc3cc(Br)cs3)CC2)cc1 [CBK062896] | 91.2%
39 | CCn1cc(CN2CCOC(c3cccc(-c4ccc(OC)cc4)n3)C2)c(C)n1 (centres unmarked) [CBK286250] | 84.4%
40 | NS(=O)(=O)c1ccc(CCNc2ncnc3c2c(-c2ccccc2)cn3-c2ccc(F)cc2)cc1 [CBK266478] | 92%
41 | Nc1ncc(-c2cccc(C(F)(F)F)c2)c2cccnc12 [CBK067590] | 89.2%
42 | O=C(O)CCc1ccc(-c2cccs2)n1CCc1ccccc1 [CBK265983] | 113%

Row | Compound | viability at 28.5 h, 10 µM
43 | Cc1c(C)n(Cc2ccco2)c2ncnc(SCCC(=O)O)c12 [CBK307569] | 105%
44 | CCOc1ccc2c(c1)CN(CCCc1nc(C)no1)CC2 [CBK305076] | 99.2%
45 | CC(C)Nc1cc(SCc2ccc(Cl)c(Cl)c2)ncn1 [CBK103665] | 85.1%
46 | O=C(Nc1ccc(N2CCCCC2)c2ccncc12)c1cccc(-n2cnnn2)c1 [CBK297754] | 85.8%
47 | CN(CCc1ccncc1)C(=O)CCc1cc(F)ccc1F [CBK304876] | 90.6%
48 | COCCn1c(SC(C)C(=O)NC2CC2)nc2ccc(Br)cc2c1=O (centres unmarked) [CBK305481] | 108%
49 | Nc1ncc(-c2cc(C(F)(F)F)cc(C(F)(F)F)c2)nc1-c1ccc(O)cc1 [CBK122503] | 98.3%
50 | COc1ccc(/C=C(\C)C(=O)Nc2cccnc2N2CCNCC2)cc1OC [CBK034124T] | 88.3%
51 | CCc1cc(CNC(=O)C2CN(Cc3ccc(Cl)cc3)C2)on1 [CBK281564] | 97.8%
52 | Cc1ccc(N(CC(=O)Nc2ccc(C)cc2C)S(=O)(=O)N2CCCC2)cc1 [CBK265998] | 110%
53 | Cn1c(CSc2nc3sc4c(c3c(=O)[nH]2)CCCC4)nnc1SC/C=C/c1ccccc1 [CBK264428] | 107%
54 | CC(C)Cn1cncc1CN1C(=O)CC2(CCCC2)CC1=O [CBK306600] | 116%
55 | Cc1scc(C(=O)NCc2ccccn2)c1-c1ccccc1 [CBK268107] | 89%
56 | COc1ccccc1NC(=O)N1C[C@@H]2C[C@H](C1)c1c(-c3ccccc3F)ccc(=O)n1C2 [CBK289192] | 92.7%
57 | O=C(c1[nH]nc2c1CCCC2)N1CCn2cc(C(F)(F)F)nc2C1 [CBK283915] | 96.7%
58 | O=C(Cn1c2ccccc2c2ccccc21)Sc1nc2ccccc2[nH]1 [CBK263788] | 103%
59 | COc1nccnc1N1CCN(CCCn2c(=O)[nH]c3ccccc32)CC1 [CBK084226] | 95.8%
60 | O=C(COc1ccc2c(c1)OCO2)Nc1ccccn1 [CBK288148] | 86.6%
61 | O=C(Nc1cccc(Br)c1)C1CN(S(=O)(=O)c2ccccc2)CCN1S(=O)(=O)c1ccccc1 (centres unmarked) [CBK262671] | 79.7%
62 | NC(=O)NC(CC(=O)N1CCN(c2nccs2)CC1)c1cccc(Br)c1 (centres unmarked) [CBK304548] | 90.6%
63 | COc1ccc(CCC(=O)NC[C@H]2CC[C@H](c3cc(C(N)=O)c4ccccc4n3)CC2)cc1 [CBK285920] | 91.7%

Row | Compound | viability at 28.5 h, 10 µM
64 | O=C(CCCc1nc(-c2ccccc2Cl)no1)Nc1cccnc1 [CBK269122] | 91.6%
65 | Cc1ccc(N(Cc2ccccc2OC(=O)c2cccnc2)C2=NS(=O)(=O)c3ccccc32)cc1 [CBK265760] | 88.4%
66 | CC(=O)N1CCC[C@H]2NC(=O)CNC(=O)C3(C/C=C/C[C@H]21)CCN(CC(C)C)CC3 [CBK292088] | 106%
67 | Cc1nc([N+](=O)[O-])c(N2CCN(Cc3ccccc3)CC2)n1Cc1ccccc1 [CBK265675] | 88.7%
68 | COc1ccc(C(NC(=O)NNC(=O)CCC(=O)c2ccc(F)cc2)c2ccccc2C)cn1 (centres unmarked) [CBK083659] | 99%
69 | CCOC(=O)C1=C(c2ccccc2)Nc2ncnn2C1c1cccc(OC)c1OC (centres unmarked) [CBK266353] | 106%
70 | Cc1cc(Oc2ccccc2)nc(Oc2ccc(OCC(N)=O)nn2)n1 [CBK266687] | 98.5%
71 | COc1ccccc1C(NC(=O)C1CCN(CCn2cnc3c2c(=O)n(C)c(=O)n3C)CC1)c1ccccn1 (centres unmarked) [CBK147939] | 91.7%
72 | O=C(O)c1cc(S(=O)(=O)Nc2cccc(-c3cnco3)c2)c(F)cc1Cl [CBK067126] | 90.5%
73 | CC1(C)CC(=O)C2=C(C1)c1c(ccc3ccccc13)NC2c1ccc(-c2ccc(O)c(C(=O)O)c2)o1 (centres unmarked) [CBK261823] | 108%
74 | CC(=O)Nc1nc2[nH]c(C)c(Cc3ccccc3)c(=O)n2n1 [CBK288202] | 89%
75 | Cc1nn(C2CCCO2)c(=O)nc1N (centres unmarked) [CBK021028] | 101%
76 | CC(=O)c1cccc(NC(=O)Cn2ncc(N3CCCC3)c(Cl)c2=O)c1 [CBK304395] | 89.5%
77 | COc1ccc(CN2CCCN(C(=O)c3ccnc(Cl)c3)CC2)cc1 [CBK305364] | 85.4%
78 | Cc1noc(C)c1C(=O)N1CCCCCC1c1ccn(C)n1 (centres unmarked) [CBK284917] | 90.8%
79 | CCN(CC(O)COc1ccc2ccccc2c1)S(=O)(=O)O (centres unmarked) [CBK261113K] | 87.2%
80 | CC(C)c1ccc(C(C)NC(=O)c2ccc(=O)n(CC(=O)NC3CCCC3)c2)cc1 (centres unmarked) [CBK286038] | 97.4%
81 | COc1ccc(-n2ncc3c2CC(C)(C)CC3NS(C)(=O)=O)cc1 (centres unmarked) [CBK306759] | 88.7%
82 | CCOC(=O)c1c(NC(=O)CSc2nnc[nH]2)sc2c1CCCC2 [CBK265999] | 93.1%
83 | CC(C)Oc1ncccc1OCCO [CBK001465] | 112%
84 | O=C(O)c1ccc(N(Cc2ccccc2)S(=O)(=O)c2ccccc2)cc1 [CBK265375N] | 92.8%

same assay, conditions: human, hela cells, % viability, bulk resorufin, single well

Row | Compound | viability at 28.5 h, 10 µM
85 | CC(=O)N1CCC(C(=O)Nc2cccc(-c3ccc4c(c3)COC3(CCNCC3)O4)c2)CC1 [CBK093674] | 91.4%
86 | CCN1C(=O)/C(=C\c2ccc(-c3cccc(C(=O)O)c3C)o2)C(=O)N(c2ccc(Cl)cc2)C1=S [CBK265270] | 99.9%
